Data reported in patent publication US6239131A, “1,5 Benzodiazepine derivatives” (Zeria Pharmaceutical Co., Ltd., priority 1996, dated 2001).

Biological target: T1, CCK-B receptors (Cavia porcellus, UniProt H0VZC5)
T1 construct: Cerebral cortices were removed from Hartley-strain guinea pigs, the cerebral cortices were homogenized; from tissue; host or cells: cerebral cortex of Hartley-strain guinea pigs, crude membrane pellet
T1 sequence (H0VZC5 1-426): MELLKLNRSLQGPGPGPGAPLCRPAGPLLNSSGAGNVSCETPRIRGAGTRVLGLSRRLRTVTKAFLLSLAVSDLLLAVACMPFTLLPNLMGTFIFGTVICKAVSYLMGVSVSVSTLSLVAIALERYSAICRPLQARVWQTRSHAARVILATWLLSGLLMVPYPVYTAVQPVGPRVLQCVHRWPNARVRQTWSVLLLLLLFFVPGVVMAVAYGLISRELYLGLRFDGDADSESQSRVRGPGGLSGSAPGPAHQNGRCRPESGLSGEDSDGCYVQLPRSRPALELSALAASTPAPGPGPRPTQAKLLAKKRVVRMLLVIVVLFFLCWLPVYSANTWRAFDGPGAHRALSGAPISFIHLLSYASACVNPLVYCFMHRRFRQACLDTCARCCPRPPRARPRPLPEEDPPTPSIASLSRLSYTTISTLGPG
Test: Measurement of Binding Affinity for CCK-B Receptors
Parameters: species or system Hartley-strain guinea pig
Conditions: inhibition of specific [3H]CCK-8 (1.0 nM) binding; guinea pig cerebral cortex; 25° C., 2 hours; pH 6.5; read-out: Ki (CCK-B receptors)
Method: Cerebral cortices were removed from Hartley-strain guinea pigs, the cerebral cortices were homogenized in 50 volumes of 50 mM Tris-HCl buffer (pH7.4) and centrifuged at 50000×g for 10 minutes. The Tris-HCl buffer was added to the pellet and recentrifuged as above two times. The final pellet was rehomogenized in 10 mM HEPES buffer (pH 6.5, which hereinafter be abbreviated as "solvent") containing 5 mM MgCl2, 1 mM EGTA, 0.25 mg/ml bacitracin and 130 mM NaCl, and used as the receptor preparation.
Binding assay was measured as follows. Fifty μl of [^3 H]CCK-8 (at the final concentration of 1.0 nM) and 900 μl of the receptor preparation (800 μg protein/tube) were added to 50 μl of either solvent, CCK-8 (1 μM) or a test compound. These ware reacted at 25° C. for 2 hours. After the reaction, the mixture was filtrated through Whatman GF/B filter presoaked in 0.1% BSA. The filter was washed with 3 ml of ice-cold 50 mM Tris-HCl buffer (pH 7.4) four times, immediately after the filtration. The filter was soaked in the ACS-II scintillation cocktail for a day and radioactivity was measured using a liquid scintillation counter. Non-specific binding was defined as the radioactivity in the presence of 1 μM CCK-8. Specific binding was defined as the difference between total binding (used solvent without CCK-8) and non-specific binding. Inhibitor dissociation constant (Ki) of each test compound was determined from the inhibition of specific [^3 H]CCK-8 binding.

Compound	Ki [nM]
Cc1ccccc1C(=O)CN1C(=O)C(NC(=O)Nc2cccc(C(=O)O)c2)CN(C(=O)C(C)(C)C)c2ccccc21 (single isomer, unassigned)	1.42
CC(C)(C)OC(=O)CN1C(=O)C(NC(=O)Nc2cccc(C(=O)NS(C)(=O)=O)c2)CN(c2ccccc2)c2ccccc21 (stereo not drawn) [Example 16, 1-(1-tert-butoxycarbonylmethyl-2-oxo-5-phenyl-1,3,4,5-tetrahydro-2H-1,5-benzodiazepin-3-yl)-3-(3-methylsulfonylaminocarbonylphenyl)urea]	2.14
CC(C)(C)OC(=O)CN1C(=O)C(NC(=O)Nc2cccc(SCC(=O)O)c2)CN(c2ccccc2)c2ccccc21 (stereo not drawn) [Example 81, 3-[3-[1-tert-butoxycarbonylmethyl-2-oxo-5-phenyl-1,3,4,5-tetrahydro-2H-1,5-benzodiazepin-3-yl]ureido]phenylthioacetic acid]	0.56
CCC(C)(C)C(=O)N1CC(NC(=O)Nc2cccc(C(=O)O)c2)C(=O)N(CC(=O)c2ccccc2C)c2cc(C)ccc21 (stereo not drawn) [Example 93, 3-[3-[1-(2-toluoylmethyl)-2-oxo-5-(2,2-dimethylbutanoyl)-8-methyl-1,3,4,5-tetrahydro-2H-1,5-benzodiazepin-3-yl]ureido]benzoic acid]	1.29
Cc1ccc2c(c1)N(CC(=O)c1ccccc1C)C(=O)C(NC(=O)Nc1cccc(C(=O)O)c1)CN2C(=O)c1ccccn1 (stereo not drawn) [Example 105, 3-[3-[1-(2-toluoylmethyl)-2-oxo-5-(2-pyridylcarbonyl)-8-methyl-1,3,4,5-tetrahydro-2H-1,5-benzodiazepin-3-yl]ureido]benzoic acid]	1.33
CC(C)(C)C(=O)CN1C(=O)[C@H](NC(=O)Nc2cccc(C(=O)O)c2)CN(C[C@@H]2CC[C@H]3C[C@@H]2C3(C)C)c2ccccc21 [Example 157, 3-[3-[(3R)-1-tert-butylcarbonylmethyl-2-oxo-5-[(1S, 2R, 5S)-pinan-10-yl]-1,3,4,5-tetrahydro-2H-1,5-benzodiazepin-3-yl]ureido]benzoic acid]	1.97

More lines, now with the values ahead:

Ki [nM]	Compound
3.16	Cc1ccc2c(c1)N(CC(=O)c1ccccc1C)C(=O)C(NC(=O)Nc1cccc(C(=O)O)c1)CN2C(=O)C(C)(C)C (racemic) [Example 13 (racemate), 3-[3-[1-(2-toluoylmethyl)-2-oxo-5-pivaloyl-8-methyl-1,3,4,5-tetrahydro-2H-1,5-benzodiazepin-3-yl]ureido]benzoic acid]
1.16	Cc1ccc2c(c1)N(CC(=O)c1ccccc1C)C(=O)C(NC(=O)Nc1cccc(C(=O)O)c1)CN2C(=O)C(C)(C)C (single isomer, unassigned; (+)) [Example 13 (+form), (+)-3-[3-[1-(2-toluoylmethyl)-2-oxo-5-pivaloyl-8-methyl-1,3,4,5-tetrahydro-2H-1,5-benzodiazepin-3-yl]ureido]benzoic acid]
1.11	Cc1cccc(NC(=O)NC2CN(C(=O)C(C)(C)C)c3ccc(C)cc3N(CC(=O)c3ccccc3C)C2=O)c1 (stereo not drawn) [Example 4, 1-[1-(2-toluoylmethyl)-2-oxo-5-pivaloyl-8-methyl-1,3,4,5-tetrahydro-2H-1,5-benzodiazepin-3-yl]-3-(3-methylphenyl)urea]
0.99	CN(C(=O)CN1C(=O)C(NC(=O)Nc2cccc(C(=O)NS(C)(=O)=O)c2)CN(c2ccccc2)c2ccccc21)c1ccccc1 (stereo not drawn) [Example 15, 1-[1-(N-phenyl-N-methyl)carbamoylmethyl-2-oxo-5-phenyl-1,3,4,5-tetrahydro-2H-1,5-benzodiazepin-3-yl]-3-(3-methylsulfonylaminocarbonylphenyl)urea]
0.61	CC(C)(C)C(=O)CN1C(=O)C(NC(=O)Nc2cccc(OCC(=O)O)c2)CN(c2ccccc2)c2ccccc21 (stereo not drawn) [Example 35, 3-[3-(1-tert-butylcarbonylmethyl-2-oxo-5-phenyl-1,3,4,5-tetrahydro-2H-1,5-benzodiazepin-3-yl)ureido]phenoxyacetic acid]
0.7	CC(C)(C)C(=O)CN1C(=O)C(NC(=O)Nc2cccc(C(=O)NS(C)(=O)=O)c2)CN(c2ccccc2)c2ccccc21 (stereo not drawn) [Example 46, 1-(1-tert-butylcarbonylmethyl-2-oxo-5-phenyl-1,3,4,5-tetrahydro-2H-1,5-benzodiazepin-3-yl)-3-(3-methylsulfonylaminocarbonylphenyl)urea]
5.02	COC(=O)N1CC(NC(=O)Nc2cccc(C)c2)C(=O)N(CC(=O)c2ccccc2C)c2ccccc21 (stereo not drawn) [Example 49, 1-[1-(2-toluoylmethyl)-2-oxo-5-methoxycarbonyl-1,3,4,5-tetrahydro-2H-1,5-benzodiazepin-3-yl]-3-(3-methylphenyl)urea]
0.98	Cc1ccccc1C(=O)CN1C(=O)C(NC(=O)Nc2cccc(-c3nnn[nH]3)c2)CN(C(=O)C(C)(C)C)c2ccccc21 (stereo not drawn) [Example 61, 1-[1-(2-toluoylmethyl)-2-oxo-5-pivaloyl-1,3,4,5-tetrahydro-2H-1,5-benzodiazepin-3-yl]-3-[3-(tetrazol-5-yl)phenyl]urea]
0.79	Cc1ccccc1C(=O)CN1C(=O)C(NC(=O)Nc2cccc(-c3noc(=O)[nH]3)c2)CN(C(=O)C(C)(C)C)c2ccccc21 (stereo not drawn) [Example 62, 1-[1-(2-toluoylmethyl)-2-oxo-5-pivaloyl-1,3,4,5-tetrahydro-2H-1,5-benzodiazepin-3-yl]-3-[3-(5-oxo-4H-1,2,4-oxadiazolin-3-yl)phenyl]urea]
2.88	Cc1cccc(NC(=O)NC2CN(c3ccccc3)c3ccccc3N(CC(=O)C(C)(C)C)C2=O)c1 (stereo not drawn) [Example 71, 1-(1-tert-butylcarbonylmethyl-2-oxo-5-phenyl-1,3,4,5-tetrahydro-2H-1,5-benzodiazepin-3-yl)-3-(3-methylphenyl)urea]
1.57	Cc1ccccc1C(=O)CN1C(=O)C(NC(=O)Nc2cccc(CC(=O)O)c2)CN(C(=O)C(C)(C)C)c2ccccc21 (stereo not drawn) [Example 72, 3-[3-[1-(2-toluoylmethyl)-2-oxo-5-pivaloyl-1,3,4,5-tetrahydro-2H-1,5-benzodiazepin-3-yl]ureido]phenylacetic acid]
0.18	Cc1ccccc1C(=O)CN1C(=O)C(NC(=O)Nc2cccc(SCC(=O)O)c2)CN(C(=O)C(C)(C)C)c2ccccc21 (stereo not drawn) [Example 78, 3-[3-[1-(2-toluoylmethyl)-2-oxo-5-pivaloyl-1,3,4,5-tetrahydro-2H-1,5-benzodiazepin-3-yl]ureido]phenylthioacetic acid]
0.43	CC(C)(C)C(=O)CN1C(=O)[C@H](NC(=O)Nc2cccc(OC(C)(C)C(=O)O)c2)CN(C2CCCCC2)c2ccccc21 [Example 125, (R)-(-)-2-methyl-2-[3-[3-(1-tert-butylcarbonylmethyl-2-oxo-5-cyclohexyl-1,3,4,5-tetrahydro-2H-1,5-benzodiazepin-3-yl)ureido]phenoxy]propionic acid]
2.86	COc1cccc(NC(=O)NC2CN(C3CCCCC3)c3ccccc3N(CC(=O)C(C)(C)C)C2=O)c1 (stereo not drawn) [Example 151, 1-(1-tert-butylcarbonylmethyl-2-oxo-5-cyclohexyl-1,3,4,5-tetrahydro-2H-1,5-benzodiazepin-3-yl)-3-(3-methoxyphenyl)urea]

Test system: pentagastrin-stimulated acid secretion
Test: Measurement of Inhibition of Pentagastrin-stimulated Acid Secretion
Type: in vivo, male Sprague-Dawley (SD)-strain rats
Conditions: 0.3 mg/kg, intraduodenal, rat; acid output from 1 to 4 hours after administration; pentagastrin 15 μg/kg/hr
Method: Male Sprague-Dawley (SD)-strain rats were used. Each rat was operated to ligate the pylorus, and equip with a duodenal catheter and gastric fistula under a ether anesthesia. After the operation, each rat was placed in a Bollman-type cage and continuously infused pentagastrin (15 μg/kg/hr) through the tail vein. Test compounds were suspended in 0.5% aqueous sodium carboxymethylcellulose (which hereinafter be abbreviated as "vehicle"). Vehicle or test compound was administered through the intraduodenal catheter 1 hour after the beginning of pentagastrin infusion. Acidity of the collected gastric juice was measured by an automatic titillation device. Acid output was determined by multiplying the volume by the acidity of gastric juice. […] [formula]

Compound	inhibition in vivo at 0.3 mg/kg [%]
Cc1ccc(NC(=O)N[C@@H]2CN(C3CCCCC3)c3ccccc3N(CC(=O)C(C)(C)C)C2=O)cc1C(=O)O [Example 166, (R)-(-)-2-methyl-5-[3-(1-tert-butylcarbonylmethyl-2-oxo-5-cyclohexyl-1,3,4,5-tetrahydro-2H-1,5-benzodiazepin-3-yl)ureido]benzoic acid]	51.2

Same assay, conditions: 1 mg/kg, intraduodenal, rat; acid output from 1 to 4 hours after administration; pentagastrin 15 μg/kg/hr

Compound	inhibition in vivo at 1 mg/kg [%]
Cc1ccc2c(c1)N(CC(=O)c1ccccc1C)C(=O)C(NC(=O)Nc1cccc(C(=O)O)c1)CN2C(=O)C(C)(C)C (single isomer, unassigned; (+)) [Example 13 (+form), (+)-3-[3-[1-(2-toluoylmethyl)-2-oxo-5-pivaloyl-8-methyl-1,3,4,5-tetrahydro-2H-1,5-benzodiazepin-3-yl]ureido]benzoic acid]	81.5

Same assay, conditions: 3 mg/kg, intraduodenal, rat; acid output from 1 to 4 hours after administration; pentagastrin 15 μg/kg/hr

Compound	inhibition in vivo at 3 mg/kg [%]
Cc1ccc2c(c1)N(CC(=O)c1ccccc1C)C(=O)C(NC(=O)Nc1cccc(C(=O)O)c1)CN2C(=O)C(C)(C)C (racemic) [Example 13 (racemate), 3-[3-[1-(2-toluoylmethyl)-2-oxo-5-pivaloyl-8-methyl-1,3,4,5-tetrahydro-2H-1,5-benzodiazepin-3-yl]ureido]benzoic acid]	80.9

Same assay, conditions: 30 mg/kg, intraduodenal, rat; acid output from 1 to 4 hours after administration; pentagastrin 15 μg/kg/hr

Compound	inhibition in vivo at 30 mg/kg [%]
Cc1ccc2c(c1)N(CC(=O)c1cccs1)C(=O)C(NC(=O)Nc1cccc(C(=O)O)c1)CN2C(=O)C(C)(C)C (stereo not drawn) [Example 89, 3-[3-[1-(2-Thenoylmethyl)-2-oxo-5-pivaloyl-8-methyl-1,3,4,5-tetrahydro-2H-1,5-benzodiazepin-3-yl]ureido]benzoic acid]	87.8
Cc1ccc2c(c1)N(CC(=O)c1ccccc1C)C(=O)C(NC(=O)Nc1cccc(C(=O)O)c1)CN2C(=O)c1ccco1 (stereo not drawn) [Example 113, 3-[3-[1-(2-toluoylmethyl)-2-oxo-5-(furan-2-ylcarbonyl)-8-methyl-1,3,4,5-tetrahydro-2H-1,5-benzodiazepin-3-yl]ureido]benzoic acid]	75.7
Cc1ccc2c(c1)N(CC(=O)C(C)(C)C)C(=O)C(NC(=O)Nc1cccc(C(=O)O)c1)CN2C1CCCCC1 (stereo not drawn) [Example 118, 3-[3-(1-tert-butylcarbonylmethyl-2-oxo-5-cyclohexyl-8-methyl-1,3,4,5-tetrahydro-2H-1,5-benzodiazepin-3-yl)ureido]benzoic acid]	88.3

Same assay, conditions: Rattus norvegicus, intraduodenal, 4 h, read-out: % Inhibition of acid output

Compound	inhibition in vivo at 10 mg/kg [%]
Cc1ccccc1C(=O)CN1C(=O)C(NC(=O)Nc2cccc(C(=O)O)c2)CN(C(=O)C(C)(C)C)c2ccccc21 (single isomer, unassigned)	69.8
